Measured values from patent US20070270612A1, “Biocidal azole emulsion concentrates having high active ingredient content” (priority 2006, published 2007).
Like-named read-outs stand apart in the source and are kept apart here.

What was measured:
[1] = Solubility of biocides in solvents; assay type: physicochemical
Excerpt: For example, Arch Wood Protection recently received US EPA registration on an end use wood preservative product having 5.0% tebuconazole, 5.0% propiconazole, 0.5% imidacloprid, and 89.5% inert ingredients (surfactants, etc). This is near the solubility limit of the carrier, that is, very little additional biocidal azole can be dissolved in that material. This is about 20 parts biocidal azoles per part of imidacloprid. Other commercially importants formulations include tebuconazole and imidacloprid in a ratio of about 50 parts to 1 part by weight, and 4 parts biocidal azoles (tebuconazole and propiconazole) per part by weight of permethin. In contrast, an exemplary formulation of the present invention comprises 15.0% tebuconazole (range 1-35%, preferably 5-20%), 15.0% propiconazole (range 1-40%, preferably 5-20%), 1.5% imidacloprid (range 0.2%-3%), 5.0% of an emulsifier blend (range 1-15%), 60.0% of a basic solvent such as N,N-dimethyldecanamide/octanamide (range 0.0-65%), and 3.5% N-methyl pyrrolidone (range 0.0-50%). The alkyl pyrrolidones can be included in component (A) compounds if an organic biocide is particularly difficult to dissolve.
Other biocides which could be used in this invention include those in the azole family and other organic molecules in general (fungicides and insecticides) that are applicable to wood preservation. These could be combined in any number of mixtures and variations, including two-ways, four-ways, etc. or alone. A large number of surfactants that can be used as emulsifier components to make an EC. It really comes down to the formulator's preference. Similarly, there are many other solvents that could be used to dissolve these active ingredients and make an EC or microemulsion from an emulsion concentrate (MEC). When the compositions are diluted and undergo sufficient shear to form a microemulsion, the resultant microemulsion is stable at all reasonably useful levels of water dilution and remain thermodynamically stable and clear, opalescent, or only slightly cloudy. […]

[2] = Particle size distribution on wet ball milling with 0.3 mm zirconia; assay type: physicochemical
Excerpt: Milling tebuconazole with 0.3 mm zirconium oxide milling material. Tebuconazole is a preferred organic biocide for use in wood and also for selected foliar applications and for incorporation into biocidal materials. […] Exemplary other preferred biocides from the same class of material include cyproconazole, tetraconazole, difenoconazole, diniconazole, penconazole, imibenconazole, propiconazole, azaconazole, and epoxyconazole. […] A CB Mills Vertical Mill Model: L-1 mill was used in this experiment. […] The original d50 (the diameter at which 50% by weight of the particles have an effective diameter equal to or less than the d50) of the tebuconazole, prior to wet milling, was about 25 microns, with about a fourth of the tebuconazole in particles […] having a particle size less than 4 microns. The milling media was 0.3-0.5 mm Yttrium doped Zirconium Oxide. The density of the yttrium-doped zirconium oxide is ˜6.0 g/cm^3. […] Generally, for injecting into wood, we prefer less than 2% by weight of particles have a diameter greater than 1 micron, more preferably 0.7 microns. The residual large particles can be separated from the slurry by centrifugation and then be sent back to the mill for additional milling.

O=[N+]([O-])NC1=NCCN1Cc1ccc(Cl)nc1 [Imidacloprid]
solubility in most every EPA approved solvent [1]: sparingly soluble

CC(C)(C)C(O)(CCc1ccc(Cl)cc1)Cn1cncn1 (stereo not drawn) [Tebuconazole]
solubility in N,N-dimethylcapramide [1]: very soluble | Volume % With Diameter 1-10 μm ([2]; milling time 0 mins): 4 Volume % | Volume % With Diameter 10-25 μm ([2]; milling time 0 mins): 42.2 Volume % | Volume % With Diameter 25-50 μm ([2]; milling time 0 mins): 27.2 Volume % | Volume % With Diameter >50 μm ([2]; milling time 0 mins): 26.6 Volume % | Volume % With Diameter 0.2-1 μm ([2]; milling time 150 mins): 20.7 Volume % | Volume % With Diameter 1-10 μm ([2]; milling time 150 mins): 4.2 Volume % | Volume % With Diameter 10-25 μm ([2]; milling time 150 mins): 3.6 Volume % | Volume % With Diameter 25-50 μm ([2]; milling time 150 mins): 0 Volume % | Volume % With Diameter <0.2 μm ([2]; milling time 150 mins): 71.5 Volume % | Volume % With Diameter >50 μm ([2]; milling time 150 mins): 0 Volume % | d50 ([2]; prior to wet milling): about 25 microns | weight % having a particle size less than 4 microns ([2]; prior to wet milling): about 4 % by weight

CCCC1COC(Cn2cncn2)(c2ccc(Cl)cc2Cl)O1 (stereo not drawn) [propiconazole]
solubility in N,N-dimethylcapramide ([1]; solvent N,N-DMC): very soluble
